Results reported in patent US9220794B2, “Two-photon fluorescent probes for imaging of total sulfide in live cell and tissue, and quantitative estimation of total sulfide concentration using the same” (Korea University Research and Business Foundation, priority 2013, dated 2015).

Legend:
[1] = pH sensitivity of the fluorescence; type: physicochemical; conditions: biologically relevant pH range
[2] = test system: rat colon tissue; experiment: Ratiometric TPM imaging (F2/F1) of rat colon slices; type: in vivo; conditions: basal, slices labeled with 20 μM 2-6
Description: The utility of the compound of [Chemical Formula 2-6] was investigated in living tissues from a 5-week-old rat colon. The inventors were particularly interested in the mucosa, muscularis mucosae and submucosa because they are invaded in the early stage of tumor (FIG. 4c). Since it takes a long time to stain the tissues during which they may be deformed, excess amount (20 μM) of the compound of [Chemical Formula 2-6] was used to facilitate staining.
Because the structure of the colon tissue is heterogeneous, TPEF intensities were acquired from 150 sections along the z-direction at a depth of about 90-170 μm using two detection windows (1 and 2) to visualize the overall sulfide distribution.
Therefore, the sections were divided into two regions and they were assigned as mucosa (90-150 μm) and submucosa including the muscularis mucosae (151-170 μm).
Male Sprague-Dawley rats (235-265 g) were divided into two groups (5-FU and control groups). In the 5-FU group, 150 mg/kg of 5-FU (SoloPak Laboratories, Franklin Park, Ill.) were intraperitoneally injected into the rats. The rats of the control group were injected with saline. Each group consisted of 4 rats.
All the rats were injected between 9 pm and 12 midnight, were allowed free access to food and water and were housed in the same room with 8-hour cycles.
8 hours after the intraperitoneal injection, all the rats were sacrificed. Laparotomy was performed after anesthetizing the rats.
Slices were prepared from the colon of the rats. The colon slices were cut into 2-cm long segments, opened by longitudinal incision and then treated with Dulbecco's phosphate-buffered saline (D-PBS; […]).
The colon slices were incubated with the compound of [Chemical Formula 2-6] (20 μM) in D-PBS bubbled with 95% O2 and 5% CO2 at 37° C. The colon slices were then moved to glass-bottomed dishes, washed 3 times with D-PBS and observed under a confocal multiphoton microscope.
TPEF intensities were collected using detection windows of 390-450 nm and 520-650 nm, with 110 sections at a depth of 90-150 μm (mucosa) and 40 sections at a depth of 151-170 μm (submucosa).
Then ratiometric images were constructed from the TPEF intensities collected using the two detection window. The F2/F1 ratio was expressed as mean±SD and p was set to be smaller than 0.05.

[3] = test system: HeLa cells; experiment: Kinetic estimation of total sulfide concentration in HeLa cells (TPEF); type: cell-based, human
Description: To quantitatively estimate the total sulfide concentration in living cells, the TPEF intensity of HeLa cells labeled with the compound of [Chemical Formula 2-6] was monitored in the absence and presence of Na2S, cysteine (Cys) and glutathione (GSH) with 20-30 minute intervals.
Since H2S and HS^− are in equilibrium and [H2S]/[HS^−]=[H^+]/Ka=0.794 in HEPES/EtOH (1/1, pH=7.2), it seems appropriate to present the total sulfide concentration ([H2S]+[HS^−]).
Kinetic experiments in HeLa cells were conducted in the same manner except that TPEF intensities from HeLa cells labeled with the compound of [Chemical Formula 2-6] upon excitation at 750 nm were monitored with 20-30 minute intervals.
The average TPEF intensities at given time and the SB2/SA1 ratio was obtained by dividing the TPEF intensity of [Chemical Formula 2-6] at 390-450 nm by that of [Chemical Formula 2-5] at 525-650 nm in the HeLa cells (FIG. 1b) were used in the kobs calculation.
The kobs value was measured at 10 regions of interest (ROIs) from three independent cell lines.
To evaluate the effect of Na2S, cysteine and GSH, HeLa cells were incubated with the compound of [Chemical Formula 2-6] (2 μM) and then treated with Na2S (100, 300 μM), cysteine (500 μM) and GSH (500 μM) for 30 minutes. The cells were then washed 3 times with FBS-free DMEM and subjected to kinetic measurement.

[4] = Measurement of two-photon cross section (fs fluorescence technique, rhodamine 6G reference); type: physicochemical; conditions: for Φδmax, two-photon action cross section: uncertainty ±15%
Description: Two-photon cross section (δ) was determined using a femtosecond (fs) fluorescence measurement technique.
The compound of [Chemical Formula 2-5] and the compound of [Chemical Formula 2-6] were dissolved in 20 mM HEPES buffer (pH 7.2) and 3.0×10^−6 M HEPES/EtOH (1/1) and then two-photon induced fluorescence intensity was measured at 740-940 nm using rhodamine 6G as a reference, whose two-photon property has been well characterized. The two-photon fluorescence intensities of the reference and the compound of [Chemical Formula 2-6] and the compound of [Chemical Formula 2-5] were determined.
The two-photon cross section was calculated from δ=δr(Ssφrφrcr)/(Srφsφscs). In the equation, the subscripts s and r stand for the sample, i.e., the compound of [Chemical Formula 2-6] and the compound of […], respectively. S denotes the intensity of the signal collected using a CCD detector, φ is the fluorescence quantum yield (measured using coumarin 307 and rhodamine B according to the literature), […] fluorescence collection efficiency, and c is the number density of molecules in solution. δr is the two-photon cross section of the reference molecule.

[5] = test system: HeLa cells; experiment: Two-photon excited fluorescence spectra of labeled HeLa cells; type: cell-based, human
Description: Accordingly, it can be seen that HEPES/EtOH (1/1) has polarity similar to that of the cellular environment.
This confirms again that HEPES/EtOH (1/1) is a good model of the cellular environment and HS^− can be detected by TPM using the compound of [Chemical Formula 2-6].
HeLa human cervical carcinoma cells were acquired from the ATCC (Manassas, Va., USA). The cells were cultured in DMEM (WelGene, Inc., Seoul, Korea) supplemented with heat-inactivated 10% FBS (WelGene), penicillin (100 units/mL) and streptomycin ([…]).
For labeling, the growth medium was removed and replaced with DMEM without FBS. The cells were incubated with the compound of [Chemical Formula 2-6] ([…]) for 30 minutes, washed 3 times with FBS-free DMEM and imaged.
The TPM images were obtained with the DM IRE2 microscope (Leica) by exciting the probes with a mode-locked titanium-sapphire laser source (Coherent Chameleon, 90 MHz, 200 fs) set at a wavelength of 750 nm and an output power of 1380 mW, which corresponded to an average power of approximately 2 mW in the focal plane.

- pH sensitivity [1]: pH-insensitive
- λ^(2)max, two-photon maximum ([4]; HEPES): 740 nm
- Φδmax, two-photon action cross section ([4]; HEPES buffer, 2-6 at 740 nm, 2-5 at 750 nm): 0.67 GM
- λ^(2)max, two-photon maximum ([4]; HEPES/EtOH (1/1)): 740 nm
- increase of action cross section (φδ) in HEPES/EtOH (1/1) versus HEPES buffer ([4]; HEPES/EtOH (1/1) vs HEPES buffer): 12 fold
- Φδmax, two-photon action cross section ([4]; HEPES/EtOH (1/1), GM = 10^−50 cm^4s/photon): 12 GM
- λ^flmax, maximum emission in cells [5]: 450 nm
SMILES: COCCOCCC1(CCOCCOC)c2cc(NC(=O)OCc3ccc(N=[N+]=[N-])cc3)ccc2-c2ccc(-c3nc4ccccc4s3)cc21 [Chemical Formula 2-6]
- average emission ratio F2/F1 ([2]; mucosa (90-150 μm)): 0.82±0.07
- average emission ratio F2/F1 ([2]; submucosa (151-170 μm)): 0.67±0.07
- kobs in labeled HeLa cells ([3]; HeLa cells labeled with 2-6, no additive): 0.0 ± 0.1 s⁻¹
- total sulfide concentration ([H2S]+[HS^−]) in HeLa cells ([3]; no additive, probe 2-6): 0.0 ± 0.1 µM
